Patent publication US20240067682A1, “PEPTIDE HAVING PLANT STEM CELL-INDUCING EFFECT AND PLANT PEST RESISTANCE-INDUCING EFFECT” (KYOTO PREFECTURAL PUBLIC UNIVERSITY CORPORATION, priority 2020, published 2024)

Columns and labels:
[1] = system: Pseudomonas syringae pv tomato DC3000; test: Disease tolerance test with CAP6 peptide: DC3000 infection of sprayed Arabidopsis thaliana leaves; assay type: in vivo; conditions: 60 nM CAP6 peptide/0.02% Silwet L-77 sprayed 48 hours before infection; counted one day after infection
Method: Multiple types (76 types) of CAP proteins derived from Schlechtendalia chinensis, Caloptilia cecidophora, Borboryctis euryae, Caloptilia ryukyuensis, Rhus javanica, and Arabidopsis thaliana were aligned. From the consensus sequence (FIG. 9), FTQIVW (SEQ ID NO: 21) was determined (hereinafter referred to as “CAP6 peptide”). Then, Arabidopsis thaliana leaves were sprayed with 0.02% Silwet L-77 (Control), 60 nM CAP peptide/0.02% Silwet L-77, or 60 nM CAP6 peptide/0.02% Silwet L-77, and 48 hours later, infected with Pseudomonas syringae pv tomato DC3000 (DC3000) with an OD600 of 0.2×10^−3. One day later, DC3000 obtained from leaf fragments cut into 5-mm-diameter circles was diluted and spotted on LB medium containing kanamycin. 24 hours later, the number of bacteria per unit area was counted.

[2] = system: Arabidopsis thaliana expressing stem cell marker PLT1-GFP; test: Stem cell induction in Arabidopsis thaliana roots expressing stem cell marker PLT1-GFP (confocal imaging); assay type: in vivo; conditions: 600 nM peptide aqueous solution, immersion 2 days
Method: Arabidopsis thaliana roots were treated with CAP peptide ([…]). Arabidopsis thaliana expressing stem cell marker PLT1-GFP was immersed in water or a 600 nM peptide aqueous solution for 2 days, and GFP fluorescent images and bright field images were obtained with a confocal laser microscope.

[3] = system: Pseudomonas syringae pv tomato DC3000; test: DC3000 infection of Arabidopsis thaliana leaves sprayed with 600 nM CAP peptide, bacterial count; assay type: in vivo; conditions: leaves sprayed with 600 nM CAP peptide/0.02% Silwet L-77 24 hours before infection; counted 2 days after infection
Method: Next, Arabidopsis thaliana leaves were sprayed with water/0.02% Silwet L-77 (Control) or 600 nM CAP peptide/0.02% Silwet L-77, and 24 hours later, infected with Pseudomonas syringae pv tomato DC3000 (DC3000) with an OD600 of 0.2×10^−3. 2 days later, DC3000 obtained from leaf fragments cut into 4-mm-diameter circles was diluted and spotted on LB medium containing kanamycin. After incubation at 28° C. for 24 hours, the number of bacteria per unit area was counted.

[4] = system: genes related to freezing tolerance and drought tolerance; test: RNA-seq gene expression after 4 hours immersion in CAP peptide; assay type: in vivo, Arabidopsis thaliana; conditions: 600 nM, immersion 4 hours, vs water
Method: RNA of Arabidopsis thaliana immersed in water or a 600 nM CAP peptide solution for 4 hours was extracted, and gene expression was compared by RNA-seq analysis. Network analysis was then performed on genes with increased expression.

Rorippa aquatica = test: Agrobacterium transformation of Rorippa aquatica in the presence of CAP peptide; assay type: in vivo; conditions: 1 μM CAP peptide mixed with Agrobacterium carrying GFP-TUB6 plasmid
Method: Agrobacterium introduced with a plasmid expressing GFP-TUB6 protein was mixed with CAP peptide to final concentrations of 50 nM, 1 μM, and 10 μM, and transformed into Rorippa aquatica.

[5] = system: Cherry tomato Sun Cherry seedlings; test: Growth promotion of cherry tomato Sun Cherry seedlings; assay type: in vivo; conditions: 1 μM CAP peptide sprayed twice (Jul. 21 and July 28); t-test p<0.05
Method: Cherry tomato Sun Cherry seedlings were purchased, sprayed with 1 μM CAP peptide on Jul. 21, 2021, and then grown in planters in an alley. The second 1 μM CAP peptide treatment was performed on July 28.

[6] = system: genes related to disease resistance; test: RNA-seq gene expression after 48 hours immersion in CAP peptide; assay type: in vivo, Arabidopsis thaliana; conditions: 600 nM, immersion 48 hours, vs water
Method: RNA of Arabidopsis thaliana immersed in water or a 600 nM CAP peptide solution for 48 hours was extracted, and gene expression was compared by RNA-seq analysis. Network analysis was then performed.

[7] = system: Pseudomonas syringae pv tomato DC3000; test: DC3000 inoculation of Brassica rapa leaves sprayed with 60 nM CAP peptide; assay type: in vivo
Method: Brassica rapa leaves were sprayed with water or a 60 nM CAP peptide solution in advance, and one day later, inoculated with plant pathogen Pseudomonas syringae pv tomato DC3000 (DC3000). 2 days after infection, DC3000 obtained from leaf fragments cut into 4-mm-diameter circles was diluted, spotted on LB medium containing kanamycin, and incubated at 28° C. for 24 hours.

[8] = system: wild-type Arabidopsis thaliana seeds; test: Osmotic and drought tolerance: growth of peptide-immersed seeds on excess mannitol- or sorbitol-containing medium; assay type: in vivo
Method: Next, wild-type Arabidopsis thaliana seeds were immersed in water (Control) or 600 nM CAP peptide for 5 minutes and then grown on an excess mannitol-containing medium. Further, wild-type Arabidopsis thaliana seeds were immersed in water (Control) or 600 nM CAP peptide overnight, and then grown on an excess sorbitol-containing medium.

[9] = system: Pseudomonas syringae DC3000; test: DC3000 inoculation of Arabidopsis thaliana leaves applied with 60 nM CAP peptide; assay type: in vivo
Method: Arabidopsis thaliana leaves applied with water or 60 nM CAP peptide were inoculated with Pseudomonas syringae DC3000.

[10] = system: Arabidopsis thaliana seeds; test: Germination of Arabidopsis thaliana seeds harvested 10 years before; assay type: in vivo; conditions: seeds immersed in 1, 10 or 100 μM CAP peptide for 2 hours; measured 2 weeks after sowing
Method: Arabidopsis thaliana seeds harvested 10 years before and not naturally germinated were immersed in 0, 1, 10, or 100 μM CAP peptide for 2 hours and then sown. The germination rate was measured 2 weeks later.

| Substance | disease tolerance effect [1] | transformation of differentiated cells into stem cells ([2]; PLT1-GFP marker) | induction of gall-like structure ([2]; roots) | growth of bacteria after infection [3] | increase in expression of genes related to freezing tolerance and drought tolerance [4] | transformation efficiency (Rorippa aquatica) | effect of promoting stem extension compared with CAP-untreated group [5] | increase in expression of genes related to disease resistance [6] | freshness after pathogen treatment vs water treatment ([7]; 60 nM CAP peptide sprayed one day before inoculation) | inhibition of bacterial growth compared with water treatment ([7]; 60 nM CAP peptide, 2 days after pathogen inoculation) | root extension on excess mannitol-containing medium vs control ([8]; 600 nM, 5 minutes immersion, high-osmotic pressure conditions) | root extension on excess sorbitol-containing medium vs control ([8]; 600 nM, overnight immersion, dry conditions) | growth on excess mannitol-containing medium, mean value ([8]; seeds immersed in 600 nM CAP peptide for 5 minutes, high-osmotic pressure conditions, FIG. 3 upper) | growth on excess sorbitol-containing medium, mean value ([8]; seeds immersed in 600 nM CAP peptide overnight, dry conditions, FIG. 3 lower) | growth of the pathogen ([9]; 4 days after infection) | plant body growth vs water treatment ([9]; 13 days after infection) | seed yield vs water treatment ([9]; 13 days after pathogen infection) | germination rate compared with gibberellin treatment [10] |
| --- | --- | --- | --- | --- | --- | --- | --- | --- | --- | --- | --- | --- | --- | --- | --- | --- | --- | --- |
| FTQIVW (consensus sequence of CAP) [CAP6 peptide] | a remarkable effect was obtained | – | – | – | – | – | – | – | – | – | – | – | – | – | – | – | – | – |
| TQVVWKSTTNIGVGILIVNGTV (partial peptide of CAP) [CAP peptide, synthetic peptide from the conserved region of insect CAP (cysteine-rich secretory protein, antigen 5, and pathogenesis-related 1)] | – | differentiated cells were transformed into stem cells | induced a gall-like structure | suppressed the growth of bacteria | ≥ 2 factor | high efficiency transformation | significantly confirmed | 2 to 3 factor | freshness was maintained for a longer period of time | ≥ 1000 times | extended more | extended more | 11.69 (S.D.=1.55) | 7.71 (S.D.=1.39) | significantly inhibited | grew much larger | yielded more seeds | much higher germination rate |
